pEC50: −log10 of the molar value.
Tests used:
MDR1 = target: T1, MDR1 (Homo sapiens, UniProt P08183); assay: MDR1 membrane permeability test; format: in vitro ADME; details: pH 7.4, efflux ratio (ER), Papp B to A / A to B, human MDR1-expressing LLC-PK1 cells, read-out: MDR1 substrate screening 1 μM (MDRSUB1)/Ratio (NUMBER)
T1 construct: expressed in transfected cells
How it was run: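 Human MDR1-expressing LLC-PK1 cells were grown for 3 days on 96-well polyethylene terephthalate Transwell supports (0.4 μm pores, 0.143 cm^2) seeded at 3.45×10^4 cells/well. After a 30 min preincubation in M199 medium with 10 mmol/L HEPES and 1% BSA (pH 7.4), drug was added apically or basolaterally. After 1 hr at 37° C, the opposite side was sampled and analyzed by LC-MS/MS. Efflux ratio was calculated from Papp B to A versus A to B.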

[1] = target: T2, human M1 receptor (hCHRM1) (Homo sapiens, UniProt P11229); assay: Measurement of M1 receptor positive allosteric modulator (M1PAM) activity, calcium fluorescence in CHO-K1 cells; format: cell-based; details: for activity (%) at 10 μM: 10 μM test compound, 100% = acetylcholine final concentration 1 μM, 0% = DMSO; for pEC50: inflection point of concentration-dependent curve, in the presence of acetylcholine at EC20 concentration (final 0.8-1.0 nM), read-out: IP value
T2 construct: expressed in transfected cells
T2 sequence (P11229 1-460): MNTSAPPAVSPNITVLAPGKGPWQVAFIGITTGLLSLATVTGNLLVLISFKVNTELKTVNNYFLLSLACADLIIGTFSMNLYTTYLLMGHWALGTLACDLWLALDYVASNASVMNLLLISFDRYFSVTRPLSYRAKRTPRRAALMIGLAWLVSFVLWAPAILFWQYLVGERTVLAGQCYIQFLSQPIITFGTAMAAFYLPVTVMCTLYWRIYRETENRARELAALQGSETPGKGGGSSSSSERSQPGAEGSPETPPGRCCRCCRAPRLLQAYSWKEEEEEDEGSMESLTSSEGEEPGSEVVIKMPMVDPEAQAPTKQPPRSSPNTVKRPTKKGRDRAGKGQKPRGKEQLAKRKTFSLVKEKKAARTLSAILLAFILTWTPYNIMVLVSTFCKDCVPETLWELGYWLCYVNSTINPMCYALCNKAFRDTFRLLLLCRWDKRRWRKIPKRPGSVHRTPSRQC
Protocol: Measurement of M1 Receptor Positive Allosteric Modulator (M1PAM) Activity
The activity of a test compound in the presence of acetylcholine at EC20 concentration (final concentration 0.8-1.0 nM), which affords an action corresponding to about 20% of the maximum activity, was measured as PAM activity. The method is as follows. CHO-K1 cells stably expressing a human M1 receptor (hCHRM1) were plated on a 384-well black clear bottom plate (BD Falcon) at 5,000 cells/well, and cultured in an incubator at 37° C., 5% CO2 for 1 day. The medium in the cell plate was removed, and assay buffer A containing calcium indicator (Recording medium (DOJINDO LABORATORIES), 0.1% BSA (Wako Pure Chemical Industries, Ltd.), 2.5 μg/mL Fluo-4 AM (DOJINDO LABORATORIES), 0.08% Pluronic F127 (DOJINDO LABORATORIES), 1.25 mM probenecid (DOJINDO LABORATORIES)) was added at 30 μL/well. The cells were left standing in the incubator at 37° C., 5% CO2 for 30 min, and further left standing at room temperature for 30 min. A test compound prepared by diluting with assay buffer B (HBSS (Invitrogen), 20 mM HEPES (Invitrogen), 0.1% BSA) containing 3.2-4.0 nM acetylcholine was added at 10 μL/well, and the fluorescence was measured by FDSS/pCELL (Hamamatsu Photonics K.K.) for 1 min every for 1 second. With the definition that the amount of change in the fluorescence on addition of acetylcholine (final concentration 1 μM) is 100% and that on addition of DMSO instead of a test compound is 0%, the activity (%) of the test compound was calculated, and the inflection point in the concentration-dependent curve of the test compound was calculated as IP values.

T1 sequence (P08183 whole entry): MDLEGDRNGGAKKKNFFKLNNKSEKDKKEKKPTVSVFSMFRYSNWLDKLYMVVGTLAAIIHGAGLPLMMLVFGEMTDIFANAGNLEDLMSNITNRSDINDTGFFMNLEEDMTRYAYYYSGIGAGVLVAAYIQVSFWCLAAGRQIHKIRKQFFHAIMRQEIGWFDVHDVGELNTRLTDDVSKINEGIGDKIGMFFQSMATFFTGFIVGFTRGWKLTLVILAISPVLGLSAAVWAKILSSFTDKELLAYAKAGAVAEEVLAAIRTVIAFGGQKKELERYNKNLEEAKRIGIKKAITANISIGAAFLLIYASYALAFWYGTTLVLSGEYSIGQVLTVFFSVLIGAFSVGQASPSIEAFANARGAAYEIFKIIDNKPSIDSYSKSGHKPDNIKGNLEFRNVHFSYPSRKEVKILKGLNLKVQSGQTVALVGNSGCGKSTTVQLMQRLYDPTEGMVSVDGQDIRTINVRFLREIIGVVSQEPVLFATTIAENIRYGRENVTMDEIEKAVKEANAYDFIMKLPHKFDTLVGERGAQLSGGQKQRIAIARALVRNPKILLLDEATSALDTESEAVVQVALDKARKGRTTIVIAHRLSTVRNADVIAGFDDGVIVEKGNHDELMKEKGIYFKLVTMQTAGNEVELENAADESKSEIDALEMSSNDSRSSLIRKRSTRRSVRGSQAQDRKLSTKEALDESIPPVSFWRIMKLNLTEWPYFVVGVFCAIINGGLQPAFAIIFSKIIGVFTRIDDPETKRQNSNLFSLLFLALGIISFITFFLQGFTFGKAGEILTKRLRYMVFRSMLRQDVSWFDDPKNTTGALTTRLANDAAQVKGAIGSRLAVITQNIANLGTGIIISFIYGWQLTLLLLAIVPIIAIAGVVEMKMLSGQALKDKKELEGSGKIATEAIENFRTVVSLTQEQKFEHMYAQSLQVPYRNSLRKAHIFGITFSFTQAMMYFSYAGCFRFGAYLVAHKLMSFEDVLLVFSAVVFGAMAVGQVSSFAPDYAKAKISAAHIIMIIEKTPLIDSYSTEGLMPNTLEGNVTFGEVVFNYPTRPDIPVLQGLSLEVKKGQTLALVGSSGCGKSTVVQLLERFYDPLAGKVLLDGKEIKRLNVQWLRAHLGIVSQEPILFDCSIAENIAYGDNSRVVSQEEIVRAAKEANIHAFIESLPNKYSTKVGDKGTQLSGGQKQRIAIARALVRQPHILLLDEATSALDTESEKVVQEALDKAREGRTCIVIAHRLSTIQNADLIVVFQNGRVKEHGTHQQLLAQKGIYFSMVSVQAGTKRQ

Row | efflux ratio at 1 hr, 1 μM (MDR1) | activity (%) at 10 μM [1] [%] | pEC50 [1] | Compound
1 | 15 | 109 | 8.52 | Cc1c(Cc2ccc(C(=O)NC3(C)COC3)c(F)c2)cc2c(=O)n([C@H]3CCOC[C@@H]3O)cnc2c1C [Example 65, 1,5-anhydro-2,3-dideoxy-3-(6-(3-fluoro-4-((3-methyloxetan-3-yl)carbamoyl)benzyl)-7,8-dimethyl-4-oxoquinazolin-3 (4H)-yl)-L-threo-pentitol]
2 | 19 | 106 | 8.77 | Cc1c(Cc2ccc(C(=O)NCC(=O)N(C)C)c(F)c2)cc2c(=O)n([C@H]3CCOC[C@@H]3O)cnc2c1C [Example 68, 1,5-anhydro-2,3-dideoxy-3-(6-(4-((2-(dimethylamino)-2-oxoethyl)carbamoyl)-3-fluorobenzyl)-7,8-dimethyl-4-oxoquinazolin-3 (4H)-yl)-L-threo-pentitol]
3 | 8 | 107 | 8.60 | Cc1c(Cc2ccc(-c3cnn(CC4CC4)c3)nc2)cc2c(=O)n([C@H]3CCOC[C@@H]3O)cnc2c1C [Example 71, 1,5-anhydro-3-(6-((6-(1-(cyclopropylmethyl)-1H-pyrazol-4-yl)pyridin-3-yl)methyl)-7,8-dimethyl-4-oxoquinazolin-3(4H)-yl)-2,3-dideoxy-L-threo-pentitol]
4 | 18 | 109 | 8.85 | COCCn1cc(-c2ccc(Cc3cc4c(=O)n([C@H]5CCOC[C@@H]5O)cnc4c(C)c3C)cn2)cn1 [Example 73, 1,5-anhydro-2,3-dideoxy-3-(6-((6-(1-(2-methoxyethyl)-1H-pyrazol-4-yl)pyridin-3-yl)methyl)-7,8-dimethyl-4-oxoquinazolin-3(4H)-yl)-L-threo-pentitol]
5 | 13 | 108 | 8.52 | Cc1c(Cc2ccc(-c3cnn(C4CCOCC4)c3)nc2)cc2c(=O)n([C@H]3CCOC[C@@H]3O)cnc2c1C [Example 75, 1,5-anhydro-2,3-dideoxy-3-(7,8-dimethyl-4-oxo-6-((6-(1-(tetrahydro-2H-pyran-4-yl)-1H-pyrazol-4-yl)pyridin-3-yl)methyl)quinazolin-3(4H)-yl)-L-threo-pentitol]
6 | 15 | 106 | 8.72 | Cc1c(Cc2ccc(C(=O)NCC3(O)CC3)c(F)c2)cc2c(=O)n([C@H]3CCOC[C@@H]3O)cnc2c1C [Example 76, 1,5-anhydro-2,3-dideoxy-3-(6-(3-fluoro-4-(((1-hydroxycyclopropyl)methyl)-carbamoyl)benzyl)-7,8-dimethyl-4-oxoquinazolin-3 (4H)-yl)-L-threo-pentitol]
7 | 32 | 107 | 8.70 | Cc1c(Cc2ccc(C(=O)NCCN3CCCC3=O)c(F)c2)cc2c(=O)n([C@H]3CCOC[C@@H]3O)cnc2c1C [Example 77, 1,5-anhydro-2,3-dideoxy-3-(6-(3-fluoro-4-((2-(2-oxopyrrolidin-1-yl)ethyl)carbamoyl)benzyl)-7,8-dimethyl-4-oxoquinazolin-3 (4H)-yl)-L-threo-pentitol]
8 | 26 | 108 | 8.82 | Cc1c(Cc2ccc(C(=O)NCC3COC3)c(F)c2)cc2c(=O)n([C@H]3CCOC[C@@H]3O)cnc2c1C [Example 79, 1,5-anhydro-2,3-dideoxy-3-(6-(3-fluoro-4-((oxetan-3-ylmethyl)carbamoyl)benzyl)-7,8-dimethyl-4-oxoquinazolin-3 (4H)-yl)-L-threo-pentitol]

More lines, now with the values behind:

Row | Compound | efflux ratio at 1 hr, 1 μM (MDR1) | activity (%) at 10 μM [1] [%] | pEC50 [1]
9 | COC1CN(C(=O)c2ccc(Cc3cc4c(=O)n([C@H]5CCOC[C@@H]5O)cnc4c(C)c3C)cc2)C1 [Example 41, 1,5-anhydro-2,3-dideoxy-3-(6-(4-((3-methoxyazetidin-1-yl)carbonyl)benzyl)-7,8-dimethyl-4-oxoquinazolin-3 (4H)-yl)-L-threo-pentitol] | 13 | 108 | 7.96
10 | COCCNC(=O)c1ccc(Cc2cc3c(=O)n([C@H]4CCOC[C@@H]4O)cnc3c(C)c2C)cc1 [Example 49, 1,5-anhydro-2,3-dideoxy-3-(6-(4-((2-methoxyethyl)carbamoyl)benzyl)-7,8-dimethyl-4-oxoquinazolin-3 (4H)-yl)-L-threo-pentitol] | 20 | 101 | 8.96
11 | Cc1c(Cc2ccc(C(=O)NCCO)cc2)cc2c(=O)n([C@H]3CCOC[C@@H]3O)cnc2c1C [Example 50, 1,5-anhydro-2,3-dideoxy-3-(6-(4-((2-hydroxyethyl)carbamoyl)benzyl)-7,8-dimethyl-4-oxoquinazolin-3 (4H)-yl)-L-threo-pentitol] | 13 | 103 | 9.10
12 | Cc1c(Cc2ccc(-c3cnn(C)c3)nc2)cc2c(=O)n([C@H]3CCOC[C@@H]3O)nnc2c1Cl [Example 54, 1,5-anhydro-3-(8-chloro-7-methyl-6-((6-(1-methyl-1H-pyrazol-4-yl)pyridin-3-yl)methyl)-4-oxo-1,2,3-benzotriazin-3 (4H)-yl)-2,3-dideoxy-L-threo-pentitol] | 9.5 | 106 | 9.00
13 | Cc1c(Cc2ccc(-c3cnn(C4CC4)c3)nc2)cc2c(=O)n([C@H]3CCOC[C@@H]3O)cnc2c1C [Example 56, 1,5-anhydro-3-(6-((6-(1-cyclopropyl-1H-pyrazol-4-yl)pyridin-3-yl)methyl)-7,8-dimethyl-4-oxoquinazolin-3 (4H)-yl)-2,3-dideoxy-L-threo-pentitol] | 4.9 | 107 | 8.68
14 | COc1cc2ncn([C@H]3CCOC[C@@H]3O)c(=O)c2cc1Cc1ccc(-c2cnn(C)c2)nc1 [Example 58, 1,5-anhydro-2,3-dideoxy-3-(7-methoxy-6-((6-(1-methyl-1H-pyrazol-4-yl)pyridin-3-yl)methyl)-4-oxoquinazolin-3 (4H)-yl)-L-threo-pentitol] | 19 | 103 | 8.72
15 | Cc1c(Cc2ccc(-c3ccn(C)n3)nc2)cc2c(=O)n([C@H]3CCOC[C@@H]3O)nnc2c1C [Example 59, 1,5-anhydro-2,3-dideoxy-3-(7,8-dimethyl-6-((6-(1-methyl-1H-pyrazol-3-yl)pyridin-3-yl)methyl)-4-oxo-1,2,3-benzotriazin-3 (4H)-yl)-L-threo-pentitol] | 3.7 | 108 | 8.59
16 | COc1cc2ncn([C@H]3CCOC[C@@H]3O)c(=O)c2cc1Cc1ccc(-c2cn(C)cn2)cc1 [Example 61, 1,5-anhydro-2,3-dideoxy-3-(7-methoxy-6-(4-(1-methyl-1H-imidazol-4-yl)benzyl)-4-oxoquinazolin-3 (4H)-yl)-L-threo-pentitol] | 32 | 108 | 8.66
17 | Cc1c(Cc2ccc(-c3cn(C)nn3)nc2)cc2c(=O)n([C@H]3CCOC[C@@H]3O)nnc2c1C [Example 62, 1,5-anhydro-2,3-dideoxy-3-(7,8-dimethyl-6-((6-(1-methyl-1H-1,2,3-triazol-4-yl)pyridin-3-yl)methyl)-4-oxo-1,2,3-benzotriazin-3 (4H)-yl)-L-threo-pentitol] | 9.4 | 107 | 8.60

Source: patent US11560372B2, “Heterocyclic compounds useful as modulators of acetylcholine receptors” (TAKEDA PHARMACEUTICAL COMPANY LIMITED, priority 2017, dated 2023)
